Test results as given in ChEMBL document CHEMBL1201862, “PubChem BioAssay data set” (2004).
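Each compound was tested at five concentrations against cells in 96-well plates for 48 hours. The concentration for 50% growth inhibition is given as GI50.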 Calls of active or inactive are those of the source. Rule as the data show it: active = GI50 up to about 1.1 µM and inactive = higher.

What was measured:
Test in all cases: NCI-60 cell line screen, 48 h
[1] = test system: SF-295
[2] = test system: RPMI-8226
[3] = test system: MOLT-4
[4] = test system: SK-OV-3
[5] = test system: ACHN
[6] = test system: OVCAR-8
[7] = test system: NCI/ADR-RES
[8] = test system: MCF7
[9] = test system: A549
[10] = test system: SK-MEL-2
[11] = test system: HCC 2998
[12] = test system: MDA-MB-435
[13] = test system: LOX IMVI
[14] = test system: CAKI-1
[15] = test system: A498
[16] = test system: SK-MEL-28
[17] = test system: HCT-15
[18] = test system: K562
[19] = test system: UO-31
[20] = test system: SK-MEL-5
[21] = test system: SNB-19
[22] = test system: SF-539
[23] = test system: NCI-H23
[24] = test system: SF-268
[25] = test system: PC-3
[26] = test system: KM12
[27] = test system: Malme-3M
[28] = test system: BT-549
[29] = test system: HOP-62
[30] = test system: CCRF-CEM
[31] = test system: Hs-578T
[32] = test system: OVCAR-3
[33] = test system: UACC-62
[34] = test system: HT-29
[35] = test system: 786-0
[36] = test system: T47D
[37] = test system: SW-620
[38] = test system: SNB-75
[39] = test system: TK-10
[40] = test system: MDA-N
[41] = test system: RXF 393
[42] = test system: MDA-MB-231
[43] = test system: NCI-H522
[44] = test system: DU-145
[45] = test system: HL-60
[46] = test system: NCI-H226
[47] = test system: NCI-H460
[48] = test system: UACC-257
[49] = test system: SR
[50] = test system: OVCAR-5
[51] = test system: IGROV-1
[52] = test system: SN12C
[53] = test system: M14
[54] = test system: COLO 205
[55] = test system: HOP-92
[56] = test system: U-251
[57] = test system: OVCAR-4
[58] = test system: EKVX
[59] = test system: HCT-116

With `Cc1c(C#N)c(N)n(C2OCC(O)C(O)C2O)c(=S)c1C#N` (centres undefined) the GI50 [1] was > 100 µM (inactive), the GI50 [2] was > 100 µM (inactive) and the GI50 [3] was > 100 µM (inactive). For the same molecule, the GI50 [4] was > 100 µM (inactive), the GI50 [5] was > 100 µM (inactive) and the GI50 [6] was > 100 µM (inactive). For the same molecule, the GI50 [7] was > 100 µM (inactive), the GI50 [8] was > 100 µM (inactive) and the GI50 [9] was > 100 µM (inactive). The GI50 [10] was 21.4 µM (inactive), the GI50 [11] was > 100 µM (inactive) and the GI50 [12] was > 100 µM (inactive). The GI50 [13] was > 100 µM (inactive), the GI50 [14] was > 100 µM (inactive) and the GI50 [15] was > 100 µM (inactive). For the same molecule, the GI50 [16] was > 100 µM (inactive), the GI50 [17] was over 100 µM and the GI50 [18] was > 100 µM (inactive). The GI50 [19] was > 100 µM (inactive), the GI50 [20] was > 100 µM (inactive) and the GI50 [21] was > 100 µM (inactive). For the same molecule, the GI50 [22] was > 100 µM (inactive), the GI50 [23] was > 100 µM (inactive) and the GI50 [24] was > 100 µM (inactive). For the same molecule, the GI50 [25] was > 100 µM (inactive), the GI50 [26] was > 100 µM (inactive) and the GI50 [27] was > 100 µM (inactive). The GI50 [28] was > 100 µM (inactive), the GI50 [29] was > 100 µM (inactive) and the GI50 [30] was > 100 µM (inactive). The GI50 [31] was 24.5 µM (inactive), the GI50 [32] was > 100 µM (inactive) and the GI50 [33] was > 100 µM (inactive). For the same molecule, the GI50 [34] was > 100 µM (inactive), the GI50 [35] was > 100 µM (inactive) and the GI50 [36] was > 100 µM (inactive). The GI50 [37] was > 100 µM (inactive), the GI50 [38] was 83.4 µM (inactive) and the GI50 [39] was > 100 µM (inactive). The GI50 [40] was > 100 µM (inactive), the GI50 [41] was > 100 µM (inactive) and the GI50 [42] was > 100 µM (inactive). For the same molecule, the GI50 [43] was > 100 µM (inactive), the GI50 [44] was > 100 µM (inactive) and the GI50 [45] was > 100 µM (inactive). The GI50 [46] was > 100 µM (inactive), the GI50 [47] was > 100 µM (inactive) and the GI50 [48] was > 100 µM (inactive). The GI50 [49] was > 100 µM (inactive), the GI50 [50] was > 100 µM (inactive) and the GI50 [51] was > 100 µM (inactive). For the same molecule, the GI50 [52] was > 100 µM (inactive) and the GI50 [53] was > 100 µM (inactive).
With `O=C1/C(=C\c2ccc(O)cc2)CCC/C1=C/c1ccc(Cl)c(Cl)c1` the GI50 [1] was 2.65 µM (inactive), the GI50 [2] was 2.44 µM (inactive) and the GI50 [54] was 1.76 µM (inactive). The GI50 [3] was 1.82 µM (inactive), the GI50 [4] was 4.37 µM (inactive) and the GI50 [5] was 3.52 µM (inactive). The GI50 [55] was 15.6 µM (inactive), the GI50 [7] was 2.03 µM (inactive) and the GI50 [8] was 2.69 µM (inactive). The GI50 [9] was 3.78 µM (inactive), the GI50 [10] was 18.6 µM (inactive) and the GI50 [11] was 2.31 µM (inactive). For the same molecule, the GI50 [12] was 3.15 µM (inactive), the GI50 [13] was 1.47 µM (inactive) and the GI50 [14] was 4.82 µM (inactive). The GI50 [15] was 3.39 µM (inactive), the GI50 [16] was 4.1 µM (inactive) and the GI50 [17] was 2.96 µM. The GI50 [18] was 2.67 µM (inactive), the GI50 [56] was 4.36 µM (inactive) and the GI50 [19] was 2.75 µM (inactive). The GI50 [20] was 7.11 µM (inactive), the GI50 [21] was 5.51 µM (inactive) and the GI50 [23] was 3.13 µM (inactive). The GI50 [24] was 3.35 µM (inactive), the GI50 [25] was 3.57 µM (inactive) and the GI50 [26] was 1.7 µM (inactive). For the same molecule, the GI50 [27] was 5.3 µM (inactive), the GI50 [28] was 2.77 µM (inactive) and the GI50 [29] was 4.17 µM (inactive). For the same molecule, the GI50 [30] was 0.374 µM (active), the GI50 [57] was 2.32 µM (inactive) and the GI50 [31] was 5.65 µM (inactive). The GI50 [32] was 3.67 µM (inactive), the GI50 [33] was 2.28 µM (inactive) and the GI50 [34] was 1.63 µM (inactive). For the same molecule, the GI50 [35] was 2.43 µM (inactive), the GI50 [36] was 11.5 µM (inactive) and the GI50 [58] was 7.69 µM (inactive). The GI50 [37] was 3.37 µM (inactive), the GI50 [38] was 2.72 µM (inactive) and the GI50 [39] was 2.98 µM (inactive). The GI50 [40] was 2.48 µM (inactive), the GI50 [41] was 2.38 µM (inactive) and the GI50 [42] was 3.38 µM (inactive). For the same molecule, the GI50 [44] was 3.19 µM (inactive), the GI50 [45] was 1.96 µM (inactive) and the GI50 [46] was 3.96 µM (inactive). The GI50 [59] was 1.89 µM (inactive), the GI50 [48] was 4.19 µM (inactive) and the GI50 [50] was 18.8 µM (inactive). For the same molecule, the GI50 [51] was 0.331 µM (active), the GI50 [52] was 2.73 µM (inactive) and the GI50 [53] was 2.13 µM (inactive).
For `Cn1ncc2[nH]cnc2c1=S`, the GI50 [1] was > 100 µM (inactive), the GI50 [2] was 34.8 µM (inactive) and the GI50 [54] was 47.5 µM (inactive). For the same molecule, the GI50 [3] was 43.8 µM (inactive), the GI50 [5] was > 100 µM (inactive) and the GI50 [6] was > 100 µM (inactive). For the same molecule, the GI50 [7] was > 100 µM (inactive), the GI50 [8] was 79.3 µM (inactive) and the GI50 [9] was > 100 µM (inactive). The GI50 [10] was > 100 µM (inactive), the GI50 [12] was > 100 µM (inactive) and the GI50 [14] was > 100 µM (inactive). The GI50 [15] was > 100 µM (inactive), the GI50 [16] was > 100 µM (inactive) and the GI50 [17] was over 100 µM. For the same molecule, the GI50 [18] was 50.7 µM (inactive), the GI50 [56] was > 100 µM (inactive) and the GI50 [19] was > 100 µM (inactive). For the same molecule, the GI50 [20] was 82.4 µM (inactive), the GI50 [21] was > 100 µM (inactive) and the GI50 [22] was > 100 µM (inactive). The GI50 [23] was > 100 µM (inactive), the GI50 [24] was > 100 µM (inactive) and the GI50 [25] was > 100 µM (inactive). For the same molecule, the GI50 [26] was > 100 µM (inactive), the GI50 [28] was > 100 µM (inactive) and the GI50 [29] was > 100 µM (inactive). For the same molecule, the GI50 [30] was 19.8 µM (inactive), the GI50 [31] was > 100 µM (inactive) and the GI50 [32] was > 100 µM (inactive). For the same molecule, the GI50 [33] was > 100 µM (inactive), the GI50 [34] was 57.7 µM (inactive) and the GI50 [35] was > 100 µM (inactive). For the same molecule, the GI50 [36] was > 100 µM (inactive), the GI50 [58] was > 100 µM (inactive) and the GI50 [37] was > 100 µM (inactive). The GI50 [38] was 86.1 µM (inactive), the GI50 [39] was > 100 µM (inactive) and the GI50 [40] was > 100 µM (inactive). The GI50 [41] was > 100 µM (inactive), the GI50 [42] was > 100 µM (inactive) and the GI50 [44] was > 100 µM (inactive). For the same molecule, the GI50 [45] was 0.541 µM (active), the GI50 [46] was > 100 µM (inactive) and the GI50 [59] was > 100 µM (inactive). For the same molecule, the GI50 [47] was > 100 µM (inactive), the GI50 [48] was > 100 µM (inactive) and the GI50 [49] was 26.7 µM (inactive). For the same molecule, the GI50 [50] was > 100 µM (inactive), the GI50 [51] was > 100 µM (inactive) and the GI50 [52] was > 100 µM (inactive). For the same molecule, the GI50 [53] was > 100 µM (inactive).
